# Measured values from the supplement of paper PMC10307832.
# Compound: CC1=C(C(=NN1)C)CC2=C(C3=C(S2)N(C(=O)N(C3=O)C)CC(C)C)C(=O)N4C[C@@H](CO4)O + Cc1nc(Nc2ncc(C(=O)Nc3c(C)cccc3Cl)s2)cc(N2CCN(CCO)CC2)n1 [Dasatinib] (partner 0.075 µM)
# Assay: relative viability (nuclei count vs DMSO), 5 days (fraction); higher = more cells survive
# Conditions: first compound 0.025 µM
# Outline: (§1)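 Values are medians from duplicate plates. Each reflects relative viability, defined as the nuclei count of treated wells over that of vehicle wells. Lung cancer cell lines in 1536-well plates were pin-tool dosed one day after seeding with one drug alone or with a fixed anchor-drug dose plus five library-drug doses (not always all listed) in √10 steps, then fixed, stained and imaged at 4× after 5 days.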
row,Cell Line,relative viability
1,NCI-H2342,0.283
2,SK-MES-1,0.371
3,H3255,0.283
4,COR-L23,0.427
5,COR-L 105,0.34
6,LOU-NH91,0.55
7,ChaGo-K-1,0.565
8,NCI-H2170,0.589
9,HOP-62,0.74
10,SW 900,0.614
11,LU99A,0.533
12,HCC-78,0.374
13,NCI-H1792,0.813
14,NCI-H1563,0.418

# Same assay, conditions: first compound 0.07906 µM
row,Cell Line,relative viability
1,NCI-H522,0.649
2,NCI-H1623,0.442
3,NCI-H727,0.292
4,NCI-H1650,0.457
5,NCI-H1993,0.596
6,SW 1573,0.501
7,NCI-H838,0.197
8,LCLC-103H,0.357
9,NCI-H520,0.154
10,NCI-H2126,0.53
11,EMC-BAC-2,0.336
12,NCI-H2085,0.209
13,HCC-366,0.635
14,NCI-H1666,0.798
15,NCI-H596,0.512
16,LK-2,0.253

row,Cell Line,relative viability
1,NCI-H2087,0.769
2,NCI-H2342,0.322
3,SK-MES-1,0.337
4,H3255,0.343
5,COR-L23,0.375
6,COR-L 105,0.273
7,LOU-NH91,0.54
8,ChaGo-K-1,0.503
9,NCI-H2170,0.412
10,NCI-H2405,0.238
11,HOP-62,0.466
12,SW 900,0.476
13,LU99A,0.508
14,HCC-78,0.366
15,NCI-H1792,0.569
16,NCI-H1563,0.404

# Same assay, conditions: first compound 0.25 µM
row,Cell Line,relative viability
1,NCI-H522,0.662
2,NCI-H1623,0.453
3,NCI-H727,0.396
4,NCI-H1650,0.227
5,NCI-H1993,0.517
6,SW 1573,0.597
7,NCI-H838,0.304
8,LCLC-103H,0.513
9,NCI-H520,0.179
10,NCI-H2126,0.585
11,EMC-BAC-2,0.34
12,NCI-H2085,0.242
13,HCC-366,0.789
14,NCI-H1666,0.923
15,NCI-H596,0.594
16,LK-2,0.275

row,Cell Line,relative viability
1,NCI-H2087,0.905
2,NCI-H2342,0.352
3,SK-MES-1,0.314
4,H3255,0.347
5,COR-L23,0.449
6,COR-L 105,0.341
7,LOU-NH91,0.619
8,ChaGo-K-1,0.513
9,NCI-H2170,0.552
10,NCI-H2405,0.224
11,HOP-62,0.559
12,SW 900,0.559
13,LU99A,0.462
14,HCC-78,0.236
15,NCI-H1792,0.687
16,NCI-H1563,0.491

# Compound: CC1=C(C(=NN1)C)CC2=C(C3=C(S2)N(C(=O)N(C3=O)C)CC(C)C)C(=O)N4C[C@@H](CO4)O + O=C(CCCCCCC(=O)Nc1ccccc1)NO [Vorinostat] (partner 1 µM)
# Assay: as above
# Conditions: first compound 0.0025 µM
# Outline: as §1
row,Cell Line,relative viability
1,NCI-H522,0.963
